# Measurements as given in patent US20130183266A1, “COMPOUNDS AND METHODS FOR THE TREATMENT OR PREVENTION OF FLAVIVIRUS INFECTIONS” (Vertex Pharmaceuticals Incorporated, priority 2010, published 2013).
# pIC50: −log10 of the molar value.
# How the values were obtained:
# [1] = system: HCV replicon (genotype 1b) in Huh7 hepatoma cell line ET; test: microbe, parasite or virus in culture; format: cell-based; settings: Hepatitis C virus, Huh-7, 96 h, read-out: HCV-Replicon-1b- IC50
# [2] = system: HCV sub-genomic replicon of genotype 1a in replicon cell line W11.8; test: microbe, parasite or virus in culture; format: cell-based; settings: Hepatitis C virus, W11.8, 96 h, read-out: HCV-Replicon-ELISA-1a-IC50
SMILES,pIC50 [1],pIC50 [2]
"[2H]c1c([2H])c([2H])c(-c2cc(N(C(=O)C3CCC(C)CC3)[C@H]3CC[C@H](O)CC3)c(C(=O)O)s2)c([2H])c1[2H] (stereo partly drawn) [Compound 1, 3-[(trans-4-Hydroxy-cyclohexyl)-(trans-4-methylcyclohexanecarbonyl)-amino]-5-d5-phenyl-thiophene-2-carboxylic acid]",6.00 to 7.00,
[2H][C@]1(O)CC[C@H](N(C(=O)C2CCC(C)CC2)c2cc(C#CC(C)(C)C)sc2C(=O)O)CC1 (stereo partly shown) [Compound 3],> 7.00,> 7.00
[2H][C@]1(O)CC[C@H](N(C(=O)C2CCC(C)CC2)c2cc(-c3ccccc3)sc2C(=O)O)CC1 (stereo partly shown) [Compound 4],6.00 to 7.00,
